The assay addresses T1, EncN (Streptomyces maritimus, UniProt Q9KHK1).
T1 sequence (Q9KHK1 1-522): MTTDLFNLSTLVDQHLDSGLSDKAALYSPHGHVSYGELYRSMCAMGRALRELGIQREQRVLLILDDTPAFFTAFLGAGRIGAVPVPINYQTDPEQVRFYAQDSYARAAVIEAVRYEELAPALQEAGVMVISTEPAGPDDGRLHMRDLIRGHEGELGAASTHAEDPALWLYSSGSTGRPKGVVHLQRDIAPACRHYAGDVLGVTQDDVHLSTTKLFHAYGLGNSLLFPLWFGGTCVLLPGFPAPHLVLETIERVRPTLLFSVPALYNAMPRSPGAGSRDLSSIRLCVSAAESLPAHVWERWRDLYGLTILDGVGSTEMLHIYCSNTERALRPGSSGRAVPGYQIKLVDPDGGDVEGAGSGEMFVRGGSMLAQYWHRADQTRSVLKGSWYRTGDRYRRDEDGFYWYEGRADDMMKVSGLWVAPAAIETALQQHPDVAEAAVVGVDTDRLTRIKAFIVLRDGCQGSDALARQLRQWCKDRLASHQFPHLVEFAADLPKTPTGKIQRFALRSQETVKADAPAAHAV
T1 sequence (Q9KHK4 1-82 partner): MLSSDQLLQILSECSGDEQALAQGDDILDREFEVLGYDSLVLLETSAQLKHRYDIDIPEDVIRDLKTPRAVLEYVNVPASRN
Put plainly: FTMS of acyl loading on holo-EncC. The class given is biochemical. Particulars: ATP 10 mM, EncN 2 uM, holo-EncC 20 uM.

Regarding `O=C(O)c1ccccc1` [benzoic acid], where the note is “benzoic acid 10 mM”, the “FTMS of acyl loading on holo-EncC” value is on record as “Upon incubation with EncN, benzoate was transferred in typical nonribosomal peptide synthetase fashion”.
For the compound `O=C(O)c1ccccc1O` [salicylic acid], the “FTMS of acyl loading on holo-EncC” value (benzoic acid omitted) was “in its absence, EncN preferentially activates and loads salicylate”.

Source of the values: paper PMC2765504 (Journal of natural products, 2009).
